We go through 4 compounds from patent US9987296B2, “Compositions including anthocyanin or anthocyanidin for the prevention or treatment of Articular cartilage-associated conditions” (priority 2008, dated 2018).

Series [1] deals with rodent pancreatic beta-cells. The conditions noted are these: in culture, with 4 and 10 mM glucose; cited from earlier work.
In series [2] the test system is osteoarthritic synovium explants. The settings on record: cited from earlier work.
In series [3] the test system is bovine chondrocytes. Briefly: Matrix synthesis rate (35S) of bovine chondrocytes in alginate beads. The conditions noted are these: 100 uM with IL-1 5 ng/mL. It is filed as cell-based.
Experimental: Chondrocytes were isolated from weight-bearing regions of young (18-30 months old) bovine femoral condyles. Primary cells were obtained from 3 different animals and suspended in beads of 2% alginate. The alginate beads were precultured in DMEM supplemented with 10% calf serum for 48 hours. Before the experiments, the chondrocytes were serum-starved overnight with 0.1% serum to reduce the effect of serum and to reduce anabolic activity to baseline.
For each treatment condition, 10 millicuries of ^35S was added to each well and incubated for the appropriate duration. At the appropriate harvest time point, each well was then washed extensively with PBS (5-6 times with 500 uL, of PBS), before trypsin and EDTA was added to dissolve alginate. After 20-30 minutes, the dissolved gels and released cells were transferred into 1.5 ml Eppendorf tubes with 150 uL, of calf serum (to promote pellet formation) and the cells were centrifuged at 2000 rpm for 5 minutes. The supernatant was removed via pipette without disturbing the cell pellet. The remaining cell and supernatant (approximately 300 ul) was then mixed with 500 uL of PBS and transferred to scintillation vials, to which 5 ml of scintillation fluid was dispensed. Each scintillation vial was capped, thoroughly vortexed and then placed in a gamma counter to measure gamma radiation emission for each sample. Each sample was measured for 5 minutes.
For series [4], the system named is Human articular chondrocytes. As to the kind of experiment: Cell viability (calcein AM / ethidium homodimer staining). Format: cell-based. The conditions noted are these: concentrations above 100 uM up to 500 uM, 96 hours. The text has this: Chondrocytes were isolated from non-arthritic regions of adult human articular cartilage (N=3 donors) and expanded in tissue culture flasks in DMEM supplemented with 10% calf serum.
At higher concentrations, the color of the anthocyanin interfered with the spectrophotometer reading; therefore, cell viability was additionally measured with calcein staining as follows: Live and dead cells were simultaneously viewed in situ with a confocal microscope (LSM 510; Zeiss, Wetzlar, Germany), using a fluorescent double stain. Calcein AM (1 uM; Invitrogen, Carlsbad, Calif.), a fluorescein derivative that is metabolized by nonspecific esterase present in viable cells, was used to stain live cells. The use of 8 uM ethidium homodimer (Invitrogen), a nucleic acid stain that is excluded by intact cell membranes, enabled visualization of the nuclei of dead cells. After 96-hour exposure to the appropriate concentration of anthocyanins, chondrocytes were cultured in DMEM supplemented with Calcein AM and ethidium homodimer for 45 minutes. Live and dead cells were counted using an automated image analysis script written in Matlab (MathWorks, Natick, Mass.) to measure percentage cell viability.

Read-outs that look alike come from different tables or passages of the source.

As for `Oc1ccc(-c2[o+]c3cc(O)cc(O)c3cc2O)cc1.[Cl-]` [Pelargonidin Chloride], the insulin secretion entry in series [1] is on record as “stimulate insulin secretion”.

As to `N[C@H]1C(O)O[C@H](CO)[C@@H](O)[C@@H]1O` (stereo partly drawn) [glucosamine], the “increase of HA production” value in series [2] (0.5 mM) is “did not”; in series [2] (5 mM) it was “approximately 2 fold”.

Regarding `OC[C@H]1OC(Oc2cc3c(O)cc(O)cc3[o+]c2-c2ccc(O)cc2)[C@H](O)[C@@H](O)[C@H]1O.[Cl-]` (stereo partly drawn) [pelargonidin-3-galactoses, reference compound], the insulin secretion result in series [1] was “stimulate insulin secretion”.

For the compound Delphinidin-3-O-Glucoside, the “matrix synthesis rates (anti-arthritic effect)” value in series [3] (12 hours, listed as Delphinidin-3-O-glucoside) was “reversed the effect of IL-1 suppression on matrix synthesis rates”; in series [3] (12 hours, listed as delphinidin-3-0-glucoside), “anti-arthritic effect”; in series [3] (12 hours, listed as delphinidin-3-O-glucoside), “anti-arthritic effect”; in series [3] (24 hours, listed as Delphinidin-3-O-glucoside), “reversed the effect of IL-1 suppression on matrix synthesis rates”; in series [3] (24 hours, listed as delphinidin-3-0-glucoside), “anti-arthritic effect”; in series [3] (24 hours, listed as delphinidin-3-O-glucoside), “anti-arthritic effect”. Also, the insulin secretion result in series [1] is “stimulate insulin secretion”. Besides, the “toxicity relative to the other compounds tested” value in series [4] is “least toxic at 200 μM”.
